From US6515018B1, “Synergistic compositions for lycopene and Vitamin E for the prevention of LDL oxidation” (Lycored Natural Products Industries Ltd., priority 1997, dated 2003) come the findings set out here.

Bounds are passed on as bounds.

Common to all, as to assay type: biochemical, human
For assay [1], the system named is LDL. The experiment in a line: CuSO4-induced LDL oxidation measured by lipid peroxides formation. The following applies: CuSO4 (5 μM)-induced LDL oxidation; > = maximal concentration used did not achieve 50% inhibition. The method, then:
(§1) Stock solutions of 1 mM of purified lycopene or of 10 mg/ml of tomato's oleoresin, were prepared in Tetrahydrofuran (THF, HPLC grade). All procedures were performed in dim light. LDL was incubated with the respective concentrations of tomato's oleoresin or with 3 μM of lycopene (3 μl/ml THF, derived from a stock solution of 1 mM) for 30 minutes at 37° C. in the dark. LDL incubated with THF alone served as control.
(§2) Oxidation of LDL was carried out in a shaking water bath at 37° C. under air, in plastic tubes (1 cm in diameter). For metal ions dependent oxidation LDL was incubated for 4 hours at 37° C. with freshly prepared CuSO4 (5 μM).
(§3) LDL oxidation was determined by measuring the amount of thiobarbituric acid reactive substances (TBARS) (See: Buege J. A. and Aust S. D. Microsomal lipid peroxidation. Methods Enzymol. 1978; 52: 302-310) and by lipid peroxides formation using a commercially available kit.
(§4) LDL (100 μg of protein/ml) was preincubated for 30 min at 37° C. with either vitamin E or lycopene in various forms. LDL oxidation was induced by the addition of 5 μM of CuSO4 and was […] for 30 min at 37° C. LDL oxidaton was measured by the TBARS assay or by measuring the inhibition of the formation of lipid peroxides. Results are shown in FIG. 1 for vitamin E inhibition and FIG. 2 for crystalline lycopene. […]

Assay [2] deals with LDL. The experiment in a line: CuSO4-induced LDL oxidation measured by TBARS formation. The conditions noted are these: CuSO4 (5 μM)-induced LDL oxidation; oleoresin concentration as lycopene; read-out: IC50 for the inhibition of TBARS formation. Here is the method:
as §1, §2, §3, §4

The subject of assay [3] is LDL. Kind of assay: Copper ions-induced LDL oxidation, Colby equation data, readout not marked (TBARS / lipid peroxides). The method, then:
as §1, §2, §3, §4

With `CC(C)=CCC/C(C)=C/C=C/C(C)=C/C=C/C(C)=C/C=C/C=C(C)/C=C/C=C(C)/C=C/C=C(\C)CCC=C(C)C` [Crystalline lycopene, lycopene], the 50% inhibitory concentration (IC50) in the assay on LDL [1] and in the assay with LDL [2] was over 50 µM each time. Besides, the “B = Percent control of lycopene alone” value in the assay on LDL [3] (Experiment 1: 1 μM crystalline lycopene alone) is given as 0%.
For Vitamin E, the half-inhibitory concentration (IC50) amounted to 6.5 µM in the assay on LDL [1] and 6 µM with LDL [2]. Moreover, in the assay with LDL [3] (1 μM vitamin E alone), the “A = Percent control of vitamin E alone” value is listed as 0%.

A word on the IC50: it is the concentration needed to halve the response being measured.
